Measurements from publication PMC12775422 (NPJ Biofilms and Microbiomes, 2025).

Target: T1, ferredoxin PA1551 (Pseudomonas aeruginosa, UniProt Q9I3G6)
T1 sequence (Q9I3G6 1-471): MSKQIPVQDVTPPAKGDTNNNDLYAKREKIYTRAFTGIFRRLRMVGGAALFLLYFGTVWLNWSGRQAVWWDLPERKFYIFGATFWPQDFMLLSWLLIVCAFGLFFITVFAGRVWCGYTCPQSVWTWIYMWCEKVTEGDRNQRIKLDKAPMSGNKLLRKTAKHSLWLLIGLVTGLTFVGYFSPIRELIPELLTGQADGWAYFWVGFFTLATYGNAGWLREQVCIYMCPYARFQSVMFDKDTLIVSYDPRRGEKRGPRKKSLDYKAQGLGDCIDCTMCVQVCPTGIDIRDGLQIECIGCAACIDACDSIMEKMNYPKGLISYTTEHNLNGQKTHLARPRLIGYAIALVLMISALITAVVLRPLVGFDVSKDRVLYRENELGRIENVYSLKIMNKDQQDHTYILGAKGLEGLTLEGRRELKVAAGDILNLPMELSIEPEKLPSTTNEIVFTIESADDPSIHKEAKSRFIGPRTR
Test: microscale thermophoresis
Type: binding

Kd: 57 nM
Structure (SMILES): CCCCCCC(=O)NCc1c(O)c(=O)cc(C)n1C [10d, 2-(heptanamido)methyl 3-hydroxy-1,6-dimethylpyridin-4(1H)-one]
